Converted amounts (≈) assume the structure as drawn.
Columns and labels:
Assay type in all cases: cell-based, Clostridium difficile
[1] = test system: C. difficile ATCC BAA-1870; assay: Spore inhibition assay; details: C. difficile ATCC BAA-1870, ½×MIC or 1×MIC, five days
Method: (§1) The spore inhibition assay was performed as described in previous reports to investigate the effect of diiodohydroxyquinoline on C. difficile spore formation. Briefly, […], the bacterial suspension was split into microcentrifuge tubes and drugs were added (in triplicates) at concentrations equal to ½×MIC or 1×MIC. Tubes were then, incubated anaerobically for five days at 37° C. Thereafter, an aliquot from each tube was diluted and plated on BHIS agar plates supplemented with 0.1% taurocholic acid, to count the total bacterial counts (vegetative bacteria+spores). The remaining solution was centrifuged, and the pellet was suspended in PBS, stored overnight at 4° C., and subsequently shock-heated at 70° C. for 30 minutes to kill the vegetative cells. The resulting solution was serially diluted and plated to determine the heat-resistant spore counts. Spore inhibition assay was performed as described in previous reports to investigate the effect of DIHQ on C. difficile spore formation. Briefly, log-phase cultures of C. difficile strains (ATCC BAA-1870, ATCC 43255, and NR-49277) were diluted in BHIS to an initial density of ˜10^6 CFU/mL. Afterwards, the bacterial suspension was split in small tubes and the drugs were added (in triplicates) at concentrations equal to ½×MIC or 1×MIC. Tubes were then incubated anaerobically for 5 days at 37° C. After that, an aliquot from each tube was diluted and plated on BHIS agar plates supplemented with 0.1% taurocholic acid, to count the total bacterial count (vegetative bacteria+spores). The remaining solution was centrifuged, and the pellet was suspended in PBS and stored overnight at 4° C. then shock heated at 70° C. for 30 minutes to kill the vegetative cells. The resulting solution was serially diluted and plated to determine the heat-resistant spore counts.

C. difficile NR-49277 = assay: Spore inhibition assay; details: C. difficile NR-49277, ½×MIC or 1×MIC, five days
Method: as §1

C. difficile ATCC 43255 = assay: Spore inhibition assay; details: C. difficile ATCC 43255, ½×MIC or 1×MIC, five days
Method: as §1

C. difficile NR-49284 = assay: MIC and MBC, broth microdilution; details: Clostridioides difficile, NR49284
Method: (§2) MIC50 and MIC90 are the minimum concentration of each agent that inhibited growth of 50% and 90% of the tested isolates, respectively. The minimum bactericidal concentration (MBC) of these drugs was tested by plating 5 μL from wells with no growth onto BHIS agar plates. The MBC was categorized as the lowest concentration that reduced bacterial growth by 99.9% MIC50 and MIC90 are the minimum concentration of each agent that inhibited the growth of 50% and 90% of the tested isolates, respectively. The minimum bactericidal concentration (MBC) of these drugs was tested by plating 5 μL from wells with no growth onto BHIS agar plates. The MBC was categorized as the lowest concentration that reduced bacterial growth by 99.9% [29-31].

C. difficile P7 = assay: MIC and MBC, broth microdilution; details: Clostridioides difficile, P7
Method: as §2

C. difficile ATCC 43598 = assay: MIC and MBC, broth microdilution; details: Clostridioides difficile, ATCC43598
Method: as §2

C. difficile P1 = assay: MIC and MBC, broth microdilution; details: Clostridioides difficile, P1
Method: as §2

C. difficile P24 = assay: MIC and MBC, broth microdilution; details: Clostridioides difficile, P24
Method: as §2

C. difficile I1 = assay: MIC and MBC, broth microdilution; details: Clostridioides difficile, I1
Method: as §2

C. difficile NR-49286 = assay: MIC and MBC, broth microdilution; details: Clostridioides difficile, NR49286
Method: as §2

C. difficile ATCC 700057 = assay: MIC and MBC, broth microdilution; details: Clostridioides difficile, ATCC700057
Method: as §2

C. difficile P8 = assay: MIC and MBC, broth microdilution; details: Clostridioides difficile, P8
Method: as §2

C. difficile I6 = assay: Checkerboard assay, DIHQ with metronidazole or vancomycin
Method: (§3) Interactions between diiodohydroxyquinoline and the anticlostridial drugs (metronidazole and vancomycin) against Clostridium difficile clinical isolates. […] The fractional inhibitory concentration index (ΣFIC) was calculated for each interaction. Interactions where the ΣFIC index was ≤0.5 were categorized as synergistic (SYN).

C. difficile P30 = assay: as above
Method: as §3

C. difficile ATCC 1801 = assay: as above
Method: as §3

C. difficile P19 = assay: as above
Method: as §3

C. difficile ATCC 9689 = assay: as above
Method: as §3

C. difficile P11 = assay: as above
Method: as §3

[2] = test system: 38 tested C. difficile strains; assay: MIC and MBC over the panel of clinical isolates (MIC50, MIC90, range); details: Clostridioides difficile
Method: as §2

CN[C@H](CC(C)C)C(=O)N[C@H]1C(=O)N[C@@H](CC(N)=O)C(=O)N[C@H]2C(=O)N[C@H]3C(=O)N[C@H](C(=O)N[C@H](C(=O)O)c4cc(O)cc(O)c4-c4cc3ccc4O)[C@H](O)c3ccc(c(Cl)c3)Oc3cc2cc(c3O[C@@H]2O[C@H](CO)[C@@H](O)[C@H](O)[C@H]2O[C@H]2C[C@](C)(N)[C@H](O)[C@H](C)O2)Oc2ccc(cc2Cl)[C@H]1O [Vancomycin, vancomycin]
reduction in spore count (in words) [1]: almost no reduction | reduction in spore count (in words) (C. difficile NR-49277): almost no reduction | reduction in spore count (in words) (C. difficile ATCC 43255): almost no reduction | MBC (C. difficile NR-49284): 0.5 µg/mL (≈ 0.345 µM) | MIC (C. difficile NR-49284): 0.25 µg/mL (≈ 0.173 µM) | MBC (C. difficile P7): 0.5 µg/mL (≈ 0.345 µM) | MIC (C. difficile P7): 0.5 µg/mL (≈ 0.345 µM) | MBC (C. difficile ATCC 43598): 1 µg/mL (≈ 0.69 µM) | MIC (C. difficile ATCC 43598): 1 µg/mL (≈ 0.69 µM) | MBC (C. difficile P1): 0.5 µg/mL (≈ 0.345 µM) | MIC (C. difficile P1): 0.5 µg/mL (≈ 0.345 µM) | MBC (C. difficile P24): 0.5 µg/mL (≈ 0.345 µM) | MIC (C. difficile P24): 0.5 µg/mL (≈ 0.345 µM) | MBC (C. difficile I1): 1 µg/mL (≈ 0.69 µM) | MIC (C. difficile I1): 1 µg/mL (≈ 0.69 µM) | MBC (C. difficile NR-49286): 0.5 µg/mL (≈ 0.345 µM) | MIC (C. difficile NR-49286): 0.25 µg/mL (≈ 0.173 µM) | MBC (C. difficile ATCC 700057): 0.5 µg/mL (≈ 0.345 µM) | MIC (C. difficile ATCC 700057): 0.5 µg/mL (≈ 0.345 µM) | MBC (C. difficile P8): 1 µg/mL (≈ 0.69 µM) | MIC (C. difficile P8): 1 µg/mL (≈ 0.69 µM) | MIC of vancomycin combined with DIHQ (C. difficile I6; C. difficile I6): 0.06 µg/mL | MIC (C. difficile I6; Clostridioides difficile, I6, read-out: MIC alone): 0.5 µg/mL | MIC of vancomycin combined with DIHQ (C. difficile P30; C. difficile P30): 0.125 µg/mL | MIC (C. difficile P30; Clostridioides difficile, P30, read-out: MIC alone): 1 µg/mL | MIC of vancomycin combined with DIHQ (C. difficile ATCC 1801; C. difficile ATCC 1801): 0.06 µg/mL | MIC (C. difficile ATCC 1801; Clostridioides difficile, ATCC1801, read-out: MIC alone): 0.5 µg/mL | MIC of vancomycin combined with DIHQ (C. difficile P19; C. difficile P19): 0.125 µg/mL | MIC (C. difficile P19; Clostridioides difficile, P19, read-out: MIC alone): 1 µg/mL | MIC of vancomycin combined with DIHQ (C. difficile ATCC 9689; C. difficile ATCC 9689): 0.125 µg/mL | MIC (C. difficile ATCC 9689; Clostridioides difficile, ATCC9689, read-out: MIC alone): 1 µg/mL | MIC of vancomycin combined with DIHQ (C. difficile P11; C. difficile P11): 0.125 µg/mL | MIC (C. difficile P11; Clostridioides difficile, P11, read-out: MIC alone): 1 µg/mL | MIC50 [2]: 0.5 µg/mL (≈ 0.345 µM) | MIC90 [2]: 1 µg/mL (≈ 0.69 µM)

Reference: patent US11806342B2, “Diiodohydroxyquinoline for the treatment of clostridium difficile infection” (Purdue Research Foundation, priority 2019, dated 2023)
